Source: patent US12366579B2, “Sulfur-heterocycle exchange chemistry and uses thereof” (University of Virginia Patent Foundation, priority 2019, dated 2025)

How the values were obtained:
[1] = biological target: EDC3 (Homo sapiens, UniProt Q96F86); assay: Chemical proteomics analysis of EDC3 using EKT-231 and HHS-465; format: binding; conditions: FIG. 46B
Source text: FIGS. 46A and 46B: Inhibition of mRNA decapping protein 3 (EDC3) Y475 by EKT-231. FIG. 46A is a schematic drawing of the chemical structure of EKT-231. FIG. 46B is a series of graphs showing the chemical proteomics analysis of EDC3 using EKT-231 and HHS-465.
In addition, SuTEx fragment EKT231 (see FIG. 46A) modifies EDC3 at tyrosine 475.

[2] = biological target: T1, human DPP3 (hDPP3) (Homo sapiens, UniProt Q9NY33); assay: Gel-based competitive chemical proteomic screen with HHS-482, recombinant hDPP3-HEK293T soluble proteomes; format: binding; conditions: 50 μM fragment, 37° C., 30 min
T1 construct: FLAG (C); host or cells: HEK293T, transient transfection; soluble proteome used unpurified
T1 sequence (Q9NY33 1-737): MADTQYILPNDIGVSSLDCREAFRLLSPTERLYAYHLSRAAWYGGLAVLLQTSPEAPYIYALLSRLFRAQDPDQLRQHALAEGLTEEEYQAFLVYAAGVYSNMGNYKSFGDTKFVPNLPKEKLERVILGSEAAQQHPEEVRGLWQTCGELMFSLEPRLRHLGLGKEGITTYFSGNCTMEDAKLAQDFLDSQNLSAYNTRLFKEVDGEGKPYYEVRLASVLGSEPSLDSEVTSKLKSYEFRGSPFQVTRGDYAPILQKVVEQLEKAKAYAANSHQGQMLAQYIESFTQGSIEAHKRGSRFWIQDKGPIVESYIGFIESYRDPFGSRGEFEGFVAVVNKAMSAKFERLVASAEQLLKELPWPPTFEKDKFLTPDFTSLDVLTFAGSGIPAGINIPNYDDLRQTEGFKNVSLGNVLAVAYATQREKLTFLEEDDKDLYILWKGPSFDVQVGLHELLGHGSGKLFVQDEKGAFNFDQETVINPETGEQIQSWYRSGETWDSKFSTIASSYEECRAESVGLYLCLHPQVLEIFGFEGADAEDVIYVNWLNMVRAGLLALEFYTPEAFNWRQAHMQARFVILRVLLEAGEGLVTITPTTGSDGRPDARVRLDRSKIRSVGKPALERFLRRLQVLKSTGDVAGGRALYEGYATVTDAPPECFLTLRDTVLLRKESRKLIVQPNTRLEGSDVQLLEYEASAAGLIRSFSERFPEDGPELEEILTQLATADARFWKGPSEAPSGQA
Method: Gel-Based Chemical Proteomic Assay
Cell pellets were lysed in PBS and fractionated (100,000×g, 45 min, 4° C.) to generate soluble and membrane fractions. Protein concentrations were determined using Bio-Rad DC protein assay (Bio-Rad Laboratories, Inc., Hercules, California, United States of America), and adjusted to 1 mgml^−1 in PBS. Proteome samples (49 μl aliquots) were treated with DMSO vehicle or indicated concentration of SuTEx fragment (1 μL, 50× stock in DMSO) for 30 min at 37° C. Samples were then treated with HHS-482 probe (1 μL, 2.5 mM stock in DMSO) for 30 min at 37° C. Probe labeled samples were conjugated to rhodamine-azide (1 μL, 1.25 mM stock; final concentration of 25 μM) by copper-catalyzed azide-alkyne cycloadditions (CuAAC) for 1 h at room temperature followed by SDS-PAGE and in-gel fluorescence scanning as previously described^57.

[3] = biological target: T2, DPP3 Y417 (Homo sapiens, UniProt Q9NY33); assay: Quantitative LC-MS chemical proteomics of recombinant human DPP3-HEK293T soluble proteome; format: binding; conditions: 50 μM fragment, 37° C., 30 min
T2 construct: FLAG (C); host or cells: HEK293T, transient transfection; soluble proteome used unpurified
Method: Preparation of SILAC Proteomes for Liquid Chromatography-Tandem Mass Spectrometry ([…]) Analysis
(§1) Heavy and light proteomes (432 μl of each) were diluted to 2.3 mg ml^−1 in PBS and sample aliquots (432 μl) were treated with SuTEx fragment at the indicated concentrations (5 μl, 100× stock in DMSO), mixed gently and incubated for 30 min at 37° C. Samples were then treated with HHS-482 (5 μL, 5 mM stock in DMSO) for 30 min at 37° C. Probe-modified proteomes were conjugated to desthiobiotin-PEG3-azide followed by enrichment of probe-modified peptides for nano-electrospray ionization-LC-MS/MS analyses as previously described^57.
Identification of peptides and proteins from tandem mass spectrometry analyses was accomplished using bioinformatics software and quality control criteria as previously described^57.

[4] = tested on: DM93 soluble proteomes; assay: Proteome-wide competitive chemical proteomics of SuTEx fragments vs HHS-482; format: binding, human; conditions: fragment 50 μM, 30 min, 37° C.
Method: as §1
The chemical proteomic method for functional tyrosine profiling^72 was tailored to investigate AG/LG effects on SuTEx fragment reactivity in complex proteomes. In brief, isotopically light and heavy soluble proteomes from DM93 melanoma cells cultured by stable isotopic labeling by amino acids in cell culture (SILAC^80) media were used for quantitative liquid chromatography-mass spectrometry (LC-MS) studies. Light and heavy DM93 proteomes were treated with dimethyl sulfoxide (DMSO) vehicle or SuTEx fragment (50 μM, 30 min, 37° C.), respectively, followed by labeling with the tyrosine-reactive probe HHS-482 described hereinabove (50 μM, 30 min, 37° C.) and copper-catalyzed azide-alkyne cycloaddition (CuAAC) conjugation of a desthiobiotin-azide enrichment tag. Proteomes were digested with trypsin protease, HHS-482-modified peptides enriched by avidin chromatography and analyzed by high-resolution LC-MS/MS and bioinformatics as described hereinabove.
To evaluate substituent effects on proteome activity, reactivity profiles of each respective SuTEx fragment were compared across >1500 total distinct HHS-482-modified tyrosine sites from >650 detected proteins. Fragments were screened across independent biological replicates (n=2-3) and high-quality tyrosine site annotations were identified by detection in at least a single biological replicate from each fragment dataset, probe-specific enrichment (HHS-482 probe/DMSO SILAC ratio (SR)>5), and quality control confidence criteria of ≥300 Byonic score^31, […] protein false discovery rate (FDR), and ≤5 ppm mass accuracy in order to minimize the potential for false positives^72. SILAC ratios (SR) from competitive studies (Light-DMSO/Heavy-fragment) were used to identify fragment-competed tyrosine residues as sites showing >75% reduction in enrichment by HHS-482 compared with DMSO vehicle control (i.e. liganded tyrosines, SR>4). In total, 305 liganded tyrosines on 213 distinct proteins were identified, corresponding to ˜30% and ˜44% of total quantified tyrosines and proteins, respectively. […]

[5] = biological target: T3, purified DPP3 (Homo sapiens, UniProt Q9NY33); assay: DPP3 biochemical substrate assay (Arg-Arg β-naphthylamide peptidase assay)
T3 sequence (Q9NY33 1-737): T1 sequence (Q9NY33 1-737)
Method: DPP3 Biochemical Substrate Assay
Substrate assays were performed using purified DPP3 protein diluted to 5 ng/μL in assay buffer. DPP3 samples (10 μl) were diluted to 85 μl with assay buffer and transferred to a black 96-well plate. Samples were treated with a 50× stock of SuTEx-fragment at indication concentration for 30 min at 37° C. A stock solution of DPP3 substrate (Arg-Arg β-naphthylamide trihydrochloride, 0.5 mM: Sigma-Aldrich. St, Louis, Missouri, United States of America) was diluted to 100 μM in assay buffer. Substrate solution (5 μl) was added to each sample. Samples were mixed briefly by shaking and reaction monitored in kinetic mode by measuring fluorescence at 450 nm for 10 min on a BMG Labtech CLARIOstar plate reader (BMG Labtech, Cary, North Carolina, United States of America).

[6] = biological target: T4, YWHAE (Y49) (Homo sapiens, UniProt P62258); assay: Competitive chemical proteomics of SuTEx fragments vs HHS-482, YWHAE site; format: binding; conditions: fragment 50 μM, 30 min, 37° C.
T4 construct: endogenous in cells; host or cells: DM93 melanoma cells, soluble proteome (lysate)
T4 sequence (P62258 whole entry, the tested form may be a part): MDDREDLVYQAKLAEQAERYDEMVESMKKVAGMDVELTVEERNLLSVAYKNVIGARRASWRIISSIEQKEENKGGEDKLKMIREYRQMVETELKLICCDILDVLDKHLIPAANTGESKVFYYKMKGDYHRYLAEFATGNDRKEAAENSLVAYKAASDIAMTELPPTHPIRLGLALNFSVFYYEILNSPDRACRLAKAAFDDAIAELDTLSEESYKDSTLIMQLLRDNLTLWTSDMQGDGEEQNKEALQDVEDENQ
Method: as §1
The chemical proteomic method for functional tyrosine profiling^72 was tailored to investigate AG/LG effects on SuTEx fragment reactivity in complex proteomes. In brief, isotopically light and heavy soluble proteomes from DM93 melanoma cells cultured by stable isotopic labeling by amino acids in cell culture (SILAC^80) media were used for quantitative liquid chromatography-mass spectrometry (LC-MS) studies. […] Proteomes were digested with trypsin protease, HHS-482-modified peptides enriched by avidin chromatography and analyzed by high-resolution LC-MS/MS and bioinformatics as described hereinabove.
To evaluate substituent effects on proteome activity, reactivity profiles of each respective SuTEx fragment were compared across >1500 total distinct HHS-482-modified tyrosine sites from >650 detected proteins. […]

Sequence of EDC3 (Q96F86 whole entry): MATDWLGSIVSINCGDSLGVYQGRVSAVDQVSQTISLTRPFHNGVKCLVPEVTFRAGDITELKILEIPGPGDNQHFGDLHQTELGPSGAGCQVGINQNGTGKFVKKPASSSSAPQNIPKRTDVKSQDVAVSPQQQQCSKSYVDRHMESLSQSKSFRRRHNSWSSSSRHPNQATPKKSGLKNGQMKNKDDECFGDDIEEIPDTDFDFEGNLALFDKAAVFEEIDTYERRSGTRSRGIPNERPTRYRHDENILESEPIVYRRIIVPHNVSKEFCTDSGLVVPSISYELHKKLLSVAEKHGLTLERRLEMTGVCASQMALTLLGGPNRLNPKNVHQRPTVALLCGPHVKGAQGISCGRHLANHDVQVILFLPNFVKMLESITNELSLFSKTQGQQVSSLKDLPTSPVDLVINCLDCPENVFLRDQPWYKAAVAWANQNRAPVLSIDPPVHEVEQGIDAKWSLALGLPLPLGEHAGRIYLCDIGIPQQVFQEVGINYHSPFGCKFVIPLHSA

Row | tyrosine residue of EDC3 modified [1] | blockade of DPP3 probe (HHS-482) labeling [2] [%] | SILAC ratio (SR), DPP3 Y417 [3] | blockade of HHS-482 labeling of DPP3 Y417 (site liganded) [3] [%] | fold difference in potency against DPP3, JWB142 vs SuFEx-3 ([5]; JWB142 more potent than SuFEx counterpart) [fold] | IC50 ([5]; fragment pretreatment 30 min at 37° C., n=3, read-out: IC50, blockade of DPP3 catalytic (peptidase) activity) [µM] | SILAC ratio (SR) at tyrosine competed site YWHAE Y49 [6] | Compound | liganded tyrosine frequency (SR>4) [4] [%]
1 | 475 |  |  |  |  |  |  | N#Cc1ccc(S(=O)(=O)n2cc(-c3cccc(Cl)c3)nn2)cc1 [EKT231] | 
2 |  | ~50 | 2.4 | ~50 | > 10 | 17 | > 6 | COc1ccc(-c2ncn(S(=O)(=O)c3ccc(-c4ccccc4)cc3)n2)cc1 [JWB142, 1-([1,1′-Biphenyl]-4-ylsulfonyl)-3-(4-methoxyphenyl)-1H-1,2,4-triazole] | < 0.1
